Assay results: patent publication US7271158B2, “Treatment of rumen acidosis with α-amylase inhibitors” (Pfizer Inc., priority 2000, dated 2007)

Columns and labels:
[1] = test system: acute acidosis after carbohydrate challenge in cannulated cattle; assay: Acute acidosis model (carbohydrate challenge); type: in vivo, Holstein dried off cows and heifers
Text: Acute Acidosis Model: Assessment of Acarbose [table] Procedures: Ten Holstein dried off cows and heifers (initial weight 740±27 (SE) kg, range=606–870 kg) were group-housed during the pre-treatment period and individually housed during the experimental period. Animals were moved to a head-gate during sample collection, treatment and first challenge. Subsequently, they were sampled and dosed in their individual pens. Animals were offered approximately 5 kg alfalfa hay, 16 kg silage, 6 kg concentrate and 0.5 kg straw daily in a total mixed ration offered in two feedings (60:40 concentrate:roughage diet ). They were bedded on straw only during the pre-treatment period. Water was provided ad libitum. Animals were adapted to the lactating ration for at least 10 days before treatments were administered. From a group of 6 dry cows and 5 non-lactating heifers, ten were selected based on previous exposure to challenge and general health. Animals were paired by body weight and were randomly assigned to control and acarbose treatment groups within pair, ensuring similar distribution of heifers and cows. On days 0–6 of treatment, animals received 1.07 mg acarbose/kg dissolved in ˜200 mL water through the rumen cannula just before AM (07:30) and PM (16:00) feedings. Treatment 1 animals received an equivalent amount of water only. On days 7 and 8, each animal was administered a challenge through the cannula. When pH reached ˜4.5 and there was evidence of L-lactate production, acute acidosis was considered to be induced. When an animal experienced acute acidosis by these criteria, rumen contents were removed and the rumen inoculated with rumen contents from a donor animal. Animals were weighed on days—1 and 5 for calculation of acarbose dosing and challenge amounts. To measure rumen fluid pH animals were fitted with a harness to hold an automatic pH data recording system. The rumen pH was recorded every 10 min during the days of challenge until an animal experienced acute acidosis. Rumen fluid samples were taken (˜50 mL) from the rumen cannula through a filtered sampling tube. […] The pH was measured immediately. […] In some cases the sample was filtered through gauze before pH measurement and acid treatment. This mixture was centrifuged for 10 min at 12000 g. One aliquot of the supernatant was removed for immediate lactate analysis, one frozen for subsequent lactate analysis using Sigma kit 826. A third aliquot was transferred to an auto-sampler vial for subsequent VFA analysis. An initial determination of L-lactate was made during the study to establish acidotic status using Sigma kit 735. Subsequently D and L-lactate were re-measured for statistical analysis as described below. VFA's were measured on a Hewlett Packard 6890 series gas chromatograph fitted with an auto-sampler and flame ionisation detector. The acids were resolved on a SGE Ltd. 25 metre BP21 column (0.33 mm O.D., 0.22 mm I.D. 0.25 um film thickness). Nitrogen was used as the carrier gas with a flow rate of 1.9 ml/min. The oven temperature was 165° C., and injection ports and detectors were held at 250° C. Concentrations were calculated by using crotonic acid as an internal standard, and the system was calibrated using a standard solution containing acetic, propionic, butyric, iso-valeric and n-valeric acids.

strained rumen liquor = assay: In vitro rumen propionic acid screen; type: cell-based, Guernsey cow; conditions: control normalised as 100%; for Total VFA: 6 h incubation; for % Propionate: molar proportion of propionic acid in total VFA
Experimental: In Vitro Rumen Propionic Acid Screen Rumen Fluid: An eight year old dry Guernsey cow, fitted with a rumen fistula (Bar Diamond Inc. P.O. Box. 60. Bar Diamond Lane. Parma. Id. 83660-0060. […] This animal was used as a source of rumen contents, which were taken at 08:00 h (before the morning feed). The material was carried to the laboratory in a pre-warmed insulated flask, and then strained through four layers of cotton gauze into another pre-warmed bottle, which was stored in an incubator at 40° C. until the fluid was dispensed into the assay tubes. Substrate Mixture: • 68 g corn starch. Ex Sigma Cat. S-4126. • 17 g α-cellulose. Ex Sigma Cat. C-6429. • 15 g Type 1 soya flour. Ex Sigma Cat. S-9633. • Mix well. The assay was conducted in 16 ml Sorvall centrifuge tubes A tablet containing 100 mg of acarbose was placed in 10 ml of buffer and shaken until the tablet was completely disrupted, giving a 10 mg/ml solution of acarbose. […] Control tubes were prepared by replacing the acarbose solution with buffer. One ml of substrate suspension was added to all the assay tubes, followed by 3 ml of warmed degassed buffer and then by 5 ml of strained rumen liquor. Suba-Seal stoppers (No. 29) were fitted, and the head pressure in the tubes reduced by passing a hypodermic needle attached to a vacuum line through the stopper until the tube contents frothed. The tubes were then placed in a 40° C. incubator for 6 hours and shaken hourly. Pre-incubation VFA concentration were determined by preparing three tubes as for incubation but 1 ml metaphosphoric/crotonic acids solution was added immediately following the rumen liquor. These tubes were stored at 4° C. and processed with the post-incubation tubes. The incubation was terminated after 6 h by removing the stoppers and adding 1 ml of metaphosphoric/crotonic acids solution. The tubes were then centrifuged for 8 minutes at 18,000 g at 4° C., and an aliquot of the supernatant stored in an automatic liquid sampler vial until required for VFA analysis by gas chromatography. (as described in […] protocol) Production of total VFA and propionate during the incubation was determined as follows. Firstly, first the pre-incubation concentrations of total VFA and propionic acid were calculated as the mean of the analyses of the pre-incubation samples. Then for each incubated sample, post-minus pre-incubation concentration gave production during incubation. The molar proportion of propionic acid in total VFA.produced during the incubation was also calculated. The total VFA and % propionic acid values were meaned for the replicate tubes, and the mean control total VFA and % propionic acid values normalised as 100%, then the change caused by the test treatments expressed relative to this value.

In the case of `CC1OC(OC2C(CO)OC(OC3C(CO)OC(O)C(O)C3O)C(O)C2O)C(O)C(O)C1NC1C=C(CO)C(O)C(O)C1O` (centres unmarked) [Acarbose, acarbose], the “Group mean D-Lactate” value ([1]; 0 hours post second challenge) is reported as 0.67 mM, the “Group mean L-Lactate” value ([1]; 0 hours post second challenge) is reported as 0.35 mM and the “Group mean Total-Lactate” value ([1]; 0 hours post second challenge) is reported as 1.02 mM. For the same molecule, the “acute acidosis following carbohydrate challenge” value ([1]; 1.07 mg/kg BW BID 7 days pre-challenge, via cannula) was “prevented acute acidosis”, the “Group mean D-Lactate” value ([1]; 3 hours post second challenge) was 3.63 mM and the “Group mean L-Lactate” value ([1]; 3 hours post second challenge) was 1.28 mM. For the same molecule, the “Group mean Total-Lactate” value ([1]; 3 hours post second challenge) was 4.91 mM, the “Group mean D-Lactate” value ([1]; 5 hours post second challenge) was 10.91 mM and the “Group mean L-Lactate” value ([1]; 5 hours post second challenge) was 3.08 mM. The “Group mean Total-Lactate” value ([1]; 5 hours post second challenge) was 13.99 mM, the “Group mean D-Lactate” value ([1]; 7 hours post second challenge) was 18.00 mM and the “Group mean L-Lactate” value ([1]; 7 hours post second challenge) was 4.93 mM. The “Group mean Total-Lactate” value ([1]; 7 hours post second challenge) was 22.93 mM, the “rumen pH” value ([1]; after second carbohydrate challenge, all treated cattle, 1.07 mg/kg BW BID 7 days pre-challenge, via cannula) was “above 5.0” and the “lactate level in rumen fluid” value ([1]; after second challenge, all acarbose-treated animals (four of five controls >50 mM)) was “remained at zero”. The “L-lactate production in response to the load” value ([1]; twice a day treatment) was “blocked”, the “pH responses to a high carbohydrate load” value ([1]; twice a day treatment) was “reduced” and the “Total VFA” value (strained rumen liquor; dose 0.32 μg/ml) was 96%. The “% Propionate” value (strained rumen liquor; dose 0.32 μg/ml) was 97%, the “Total VFA” value (strained rumen liquor; dose 1.6 μg/ml) was 92% and the “% Propionate” value (strained rumen liquor; dose 1.6 μg/ml) was 94%. For the same molecule, the “Total VFA” value (strained rumen liquor; dose 8 μg/ml) was 72%, the “% Propionate” value (strained rumen liquor; dose 8 μg/ml) was 74% and the “Total VFA” value (strained rumen liquor; dose 40 μg/ml) was 63%. For the same molecule, the “% Propionate” value (strained rumen liquor; dose 40 μg/ml) was 74%, the “Total VFA” value (strained rumen liquor; dose 200 μg/ml) was 58% and the “% Propionate” value (strained rumen liquor; dose 200 μg/ml) was 81%. The “Total VFA” value (strained rumen liquor; dose 1000 μg/ml) was 50% and the “% Propionate” value (strained rumen liquor; dose 1000 μg/ml) was 88%.
